Values after ≈ are worked out from the molar mass of the structure shown.
How the values were obtained:
[1] = Intrinsic clearance in human liver microsomes; assay type: ADME, Microsome; settings: read-out: CLH
[2] = Aqueous solubility of the compound at pH 1; assay type: physicochemical
[3] = Aqueous solubility of the compound at pH 6.5; assay type: physicochemical
[4] = Aqueous solubility of the compound at pH 7.4; assay type: physicochemical

Work on OC1CCC(C(O)CC2c3c(F)cccc3-c3cncn32)CC1 (centres undefined) yielded a predicted hepatic clearance [1] of 4.06 mL/min/kg, a solubility [2] of 353 µM (≈ 112 µg/mL) and a solubility [3] of 329 µM (≈ 104 µg/mL). The solubility [4] was 316 µM (≈ 100 µg/mL).

From ChEMBL document CHEMBL4364294 (J Med Chem, 2019)
